Assay in all cases: Test A preemergence
Type in all cases: in vivo

Test [1] concerns pigweed (Amaranthus retroflexus). Particulars: Amaranthus retroflexus, pre-emergence, 240 h; for pest or weed control at 125 g/ha: 125 g ai/ha, preemergence, 0 to 100 scale where 0 is no effect and 100 is complete control, read-out: Pigweed plant response rating; for pest or weed control at 500 g/ha: 500 g ai/ha, Preemergence, visual injury vs untreated controls after approximately 10 d, read-out: Pigweed plant response rating (0 to 100 scale where 0 is no effect and 100 is complete control).

The test system of test [2] is barnyardgrass (Echinochloa crus-galli). As to conditions: Echinochloa crus-galli, pre-emergence, 240 h; for pest or weed control at 125 g/ha: 125 g ai/ha, preemergence, 0 to 100 scale where 0 is no effect and 100 is complete control, read-out: Barnyardgrass plant response rating; for pest or weed control at 500 g/ha: 500 g ai/ha, Preemergence, visual injury vs untreated controls after approximately 10 d, read-out: Barnyardgrass plant response rating (0 to 100 scale where 0 is no effect and 100 is complete control). A digest of the protocol: (§1)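 Seeds sprayed preemergence with a directed soil spray, or plants at 2 to 10 cm height and one- to two-leaf stage sprayed postemergence, with test chemicals in a non-phytotoxic solvent mixture containing surfactant, in loam soil–sand blend. Injury rated visually against untreated controls after about 10 d in greenhouse, 0 (no effect) to 100 (complete control).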

Test [3] concerns ragweed (common ragweed, Ambrosia elatior). Particulars: Ambrosia artemisiifolia, pre-emergence, 240 h; for pest or weed control at 125 g/ha: 125 g ai/ha, preemergence, 0 to 100 scale where 0 is no effect and 100 is complete control, read-out: Ragweed plant response rating; for pest or weed control at 500 g/ha: 500 g ai/ha, Preemergence, visual injury vs untreated controls after approximately 10 d, read-out: Ragweed plant response rating (0 to 100 scale where 0 is no effect and 100 is complete control). A digest of the protocol:
as §1

Test [4] relates to giant foxtail (Setaria faberii). As to conditions: Setaria faberi, pre-emergence, 240 h; for pest or weed control at 125 g/ha: 125 g ai/ha, preemergence, 0 to 100 scale where 0 is no effect and 100 is complete control, read-out: Foxtail, Giant plant response rating; for pest or weed control at 500 g/ha: 500 g ai/ha, Preemergence, visual injury vs untreated controls after approximately 10 d, read-out: Foxtail, Giant plant response rating (0 to 100 scale where 0 is no effect and 100 is complete control). A digest of the protocol:
as §1

Another test deals with Kochia (Kochia scoparia). Particulars: Bassia scoparia, pre-emergence, 240 h; for pest or weed control at 125 g/ha: 125 g ai/ha, preemergence, 0 to 100 scale where 0 is no effect and 100 is complete control, read-out: Kochia plant response rating; for pest or weed control at 500 g/ha: 500 g ai/ha, Preemergence, visual injury vs untreated controls after approximately 10 d, read-out: Kochia plant response rating (0 to 100 scale where 0 is no effect and 100 is complete control). In short, it runs like this: as §1

SMILES strings stand for the structures.

Regarding `CN1C[C@H](c2cc(F)cc(F)c2)[C@@H](C(=O)Nc2ccc(C(F)(F)F)nc2)C1=O` [Compound 870], the pest or weed control at 125 g/ha is 0% in test [1]; 50% in test [2]; 0% in test [3]; 20% in test [4]; 0% in the test with Kochia (Kochia scoparia). For the same compound, the pest or weed control at 500 g/ha amounted to 0% in test [1]; 80% in test [2]; 0% in test [3]; 50% in test [4]; 0% in the test with Kochia (Kochia scoparia).

Regarding `CN1C[C@H](c2cccc(COC(F)F)c2)[C@@H](C(=O)Nc2cccc(F)c2F)C1=O` [Compound 873], the pest or weed control at 125 g/ha in test [1] came to 40%; in test [2] it was 90%; in test [3], 40%; in test [4], 90%; in the test with Kochia (Kochia scoparia) it was 80%. The pest or weed control at 500 g/ha in test [1] is 50%; in test [2] it was 90%; in test [3], 90%; in test [4], 100%; with Kochia (Kochia scoparia) it was 90%.

Take `CN1C[C@H](c2cc(F)c(F)c(F)c2)[C@@H](C(=O)Nc2cccc(F)c2F)C1=O` [Compound 879]: the pest or weed control at 125 g/ha in test [1] came to 70%; in test [2], 100%; in test [3], 50%; in test [4], 100%; in the test on Kochia (Kochia scoparia) it was 80%. In addition, the pest or weed control at 500 g/ha in test [1] was 80%; in test [2] it was 100%; in test [3] it was 90%; in test [4], 100%; in the test on Kochia (Kochia scoparia), 90%.

`CN1C[C@H](c2cc(F)c(F)c(F)c2)[C@@H](C(=O)Nc2ccccc2S(C)(=O)=O)C1=O` [Compound 880]: the pest or weed control at 125 g/ha in test [1] was 70%; in test [2] it was 90%; in test [3], 50%; in test [4], 100%; with Kochia (Kochia scoparia), 70%. Besides, the pest or weed control at 500 g/ha in test [1] was 90%; in test [2], 100%; in test [3], 80%; in test [4] it was 100%; in the test with Kochia (Kochia scoparia), 90%.

For the compound `COc1c(F)ccc([C@H]2CNC(=O)[C@@H]2C(=O)Nc2ccc(F)cc2F)c1Cl` [Compound 883], the pest or weed control at 125 g/ha was found to be 0% in test [1]; 90% in test [2]; 0% in test [3]; 60% in test [4]; 30% in the test with Kochia (Kochia scoparia). For the same compound, the pest or weed control at 500 g/ha in test [1] worked out at 0%; in test [2], 90%; in test [3] it was 0%; in test [4], 90%; with Kochia (Kochia scoparia), 60%.

As for `Cc1cc(C)cc([C@H]2CNC(=O)[C@@H]2C(=O)Nc2ccccc2F)c1` [Compound 888], the pest or weed control at 125 g/ha in test [1] was 0%; in test [2] it was 90%; in test [3], 0%; in test [4], 80%; in the test with Kochia (Kochia scoparia), 60%. The pest or weed control at 500 g/ha was 0% in test [1]; 90% in test [2]; 0% in test [3]; 90% in test [4]; 80% in the test on Kochia (Kochia scoparia).

For the compound `COc1c(F)ccc([C@H]2CN(C)C(=O)[C@@H]2C(=O)Nc2ccccc2F)c1Cl` [Compound 892], the pest or weed control at 125 g/ha turned out to be 0% in test [1]; 100% in test [2]; 20% in test [3]; 100% in test [4]; 70% in the test with Kochia (Kochia scoparia). Besides, the pest or weed control at 500 g/ha in test [1] turned out to be 40%; in test [2], 100%; in test [3], 50%; in test [4] it was 100%; in the test on Kochia (Kochia scoparia) it was 90%.

Take `COc1c(F)ccc([C@H]2CN(C)C(=O)[C@@H]2C(=O)Nc2ccc(F)c(F)c2F)c1Cl` [Compound 895]: the pest or weed control at 125 g/ha in test [1] was 50%; in test [2], 90%; in test [3], 0%; in test [4], 90%; with Kochia (Kochia scoparia) it was 90%. Also, the pest or weed control at 500 g/ha in test [1] turned out to be 50%; in test [2], 100%; in test [3], 0%; in test [4], 90%; in the test with Kochia (Kochia scoparia) it was 90%.

`COc1c(F)ccc([C@H]2CN(C)C(=O)[C@@H]2C(=O)Nc2ccccc2C(F)(F)F)c1Cl` [Compound 896]: the pest or weed control at 125 g/ha in test [1] amounted to 20%; in test [2], 90%; in test [3], 0%; in test [4] it was 90%; with Kochia (Kochia scoparia) it was 30%. The pest or weed control at 500 g/ha in test [1] turned out to be 40%; in test [2], 90%; in test [3] it was 0%; in test [4], 100%; with Kochia (Kochia scoparia), 50%.

In the case of `COc1c(F)ccc([C@H]2CN(C)C(=O)[C@@H]2C(=O)Nc2ccccc2S(C)(=O)=O)c1Cl` [Compound 897], the pest or weed control at 125 g/ha came out at 30% in test [1]; 80% in test [2]; 20% in test [3]; 90% in test [4]; 60% with Kochia (Kochia scoparia). In addition, the pest or weed control at 500 g/ha in test [1] worked out at 60%; in test [2] it was 90%; in test [3], 60%; in test [4] it was 100%; in the test on Kochia (Kochia scoparia), 90%.

On to `CCOc1ccc([C@H]2CN(C)C(=O)[C@@H]2C(=O)Nc2cccc(F)c2F)cc1` [Compound 904], for which the pest or weed control at 125 g/ha in test [1] was found to be 0%; in test [2], 90%; in test [3], 0%; in test [4], 90%; in the test on Kochia (Kochia scoparia), 90%. The pest or weed control at 500 g/ha in test [1] is 50%; in test [2], 90%; in test [3], 0%; in test [4], 90%; in the test on Kochia (Kochia scoparia) it was 90%.

For `Cc1cc(C)cc([C@H]2CN(C)C(=O)[C@@H]2C(=O)Nc2cccc(F)c2F)c1` [Compound 911], the pest or weed control at 125 g/ha in test [1] was found to be 20%; in test [2], 90%; in test [3] it was 0%; in test [4], 90%; in the test on Kochia (Kochia scoparia) it was 90%. The pest or weed control at 500 g/ha turned out to be 50% in test [1]; 100% in test [2]; 60% in test [3]; 100% in test [4]; 100% in the test with Kochia (Kochia scoparia).

Take `CN1CC[C@H](c2cccc(Cl)c2)[C@@H](C(=O)Nc2cccc(Cl)c2F)C1=O` [Compound 924]: the pest or weed control at 125 g/ha stood at 0% in test [1]; 90% in test [2]; 0% in test [3]; 90% in test [4]; 0% in the test with Kochia (Kochia scoparia). Besides, the pest or weed control at 500 g/ha in test [1] stood at 0%; in test [2] it was 90%; in test [3], 0%; in test [4] it was 90%; in the test on Kochia (Kochia scoparia) it was 0%.

These data come from patent publication US12077503B2, “Substituted cyclic amides and their use as herbicides” (FMC CORPORATION, priority 2015, dated 2024).
